Measured values from ChEMBL document CHEMBL1153141, “Anti-tumor activity of a new series of benzoxazepine derivatives in breast cancer” (Bioorg Med Chem Lett, 2010).
Counter-ions that a name gives are not always drawn. Calls of active or inactive are those of the source. The rule behind the calls is not given here.

How the values were obtained:
[1] = test system: MCF7; experiment: Cytotoxicity against human MCF7 cells after 18 hrs by MTT assay; assay type: functional, cell-based; conditions: MCF7, 18 h
[2] = test system: MDA-MB-231; experiment: Cytotoxicity against human MDA-MB-231 cells after 18 hrs by MTT assay; assay type: functional, cell-based; conditions: MDA-MB-231, 18 h
[3] = test system: Ishikawa; experiment: Cytotoxicity against human Ishikawa cells after 18 hrs by MTT assay; assay type: functional, cell-based
[4] = test system: DU-145; experiment: Cytotoxicity against human DU145 cells after 18 hrs by MTT assay; assay type: functional, cell-based; conditions: DU-145, 18 h
[5] = test system: MCF7; experiment: Induction of apoptosis in human MCF7 cells at 5 to 10 uM after 24 hrs using annexin V-propidium iodide staining by flow cytometry relative to control; assay type: functional, cell-based
[6] = test system: MCF7; experiment: Cell cycle arrest in human MCF7 cells assessed as accumulation at G0/G1 phase at 5 to 10 uM after 24 hrs using […] by flow cytometry relative to control; assay type: functional, cell-based
[7] = test system: MCF7; experiment: Antitumor activity against human MCF7 cells xenografted in mouse assessed as tumor volume regression at 8 to 16 mg/kg, po for 30 days; assay type: functional, organism-based
[8] = test system: HEK293; experiment: Cytotoxicity against HEK293 cells after 18 hrs by MTT assay; assay type: cell-based; conditions: human, hek293, 18 h

| Compound | IC50 [1] | IC50 [2] | IC50 [3] | IC50 [4] | Activity [5] | Activity [6] | Activity [7] | Activity [8] |
| --- | --- | --- | --- | --- | --- | --- | --- | --- |
| Cc1ccc(S(=O)(=O)N2Cc3ccccc3OC[C@@H]2C(C)C)cc1 | > 50 µM | > 50 µM | > 50 µM | > 50 µM |  |  |  |  |
| COc1cccc2c1OC[C@H](Cc1ccc(OCCN(C)C)cc1)N(S(=O)(=O)c1ccc(C)cc1)C2 | > 50 µM | > 50 µM | > 50 µM | > 50 µM |  |  |  |  |
| COc1ccc2c(c1)OC[C@H](Cc1ccc(OCCN3CCCC3)cc1)N(S(=O)(=O)c1ccc(C)cc1)C2 | > 50 µM | > 50 µM | > 50 µM | > 50 µM |  |  |  |  |
| COc1cccc2c1OC[C@H](Cc1ccc(OCCN3CCCCC3)cc1)N(S(=O)(=O)c1ccc(C)cc1)C2 | > 50 µM | > 50 µM | > 50 µM | > 50 µM |  |  |  |  |
| COc1cccc2c1OC[C@H](Cc1ccc(OCCN3CCCCCC3)cc1)N(S(=O)(=O)c1ccc(C)cc1)C2 | > 50 µM | > 50 µM | > 50 µM | > 50 µM |  |  |  |  |
| CCN(CC)CCOc1ccc(C[C@H]2COc3ccccc3CN2S(=O)(=O)c2ccc(C)cc2)cc1 | 6.53 µM | 17.4 µM | 22.6 µM | 23 µM | Active | Active | Active |  |
| Cc1ccc(S(=O)(=O)N2Cc3ccccc3OC[C@@H]2Cc2ccc(OCCN3CCCC3)cc2)cc1 | 9.34 µM | 13 µM | 23.8 µM | 30 µM |  |  |  | Non-toxic |
| Cc1ccc(S(=O)(=O)N2Cc3ccccc3OC[C@H]2Cc2ccccc2)cc1 | > 50 µM | > 50 µM | > 50 µM | > 50 µM |  |  |  |  |
| Cc1ccc(S(=O)(=O)N2Cc3ccccc3OCC2Cc2ccc(OCCN3CCOCC3)cc2)cc1 (stereo unspecified) | > 50 µM | > 50 µM | > 50 µM | > 50 µM |  |  |  |  |
| CCN(CC)CCOc1ccc(C[C@H]2COc3c(cccc3OC)CN2S(=O)(=O)c2ccc(C)cc2)cc1 | > 50 µM | > 50 µM | > 50 µM | > 50 µM |  |  |  |  |
| Cc1ccc(S(=O)(=O)N2Cc3ccccc3OC[C@@H]2CC(C)C)cc1 | > 50 µM | > 50 µM | > 50 µM | > 50 µM |  |  |  |  |
| COc1ccc2c(c1)OC[C@H](Cc1ccc(OCCN(C)C)cc1)N(S(=O)(=O)c1ccc(C)cc1)C2 | > 50 µM | > 50 µM | > 50 µM | > 50 µM |  |  |  |  |
| COc1cccc2c1OC[C@H](Cc1ccc(OCCN3CCOCC3)cc1)N(S(=O)(=O)c1ccc(C)cc1)C2 | > 50 µM | > 50 µM | > 50 µM | > 50 µM |  |  |  |  |
| CCC(C)[C@H]1COc2ccccc2CN1S(=O)(=O)c1ccc(C)cc1 (stereo partly specified) | > 50 µM | > 50 µM | > 50 µM | > 50 µM |  |  |  |  |
| Cc1ccc(S(=O)(=O)N2Cc3ccccc3OC[C@@H]2Cc2ccccc2)cc1 | > 50 µM | > 50 µM | > 50 µM | > 50 µM |  |  |  |  |
| COc1ccc2c(c1)OC[C@H](Cc1ccc(OCCN3CCOCC3)cc1)N(S(=O)(=O)c1ccc(C)cc1)C2 | > 50 µM | > 50 µM | > 50 µM | > 50 µM |  |  |  |  |
| COc1cccc2c1OC[C@H](Cc1ccc(OCCN3CCCC3)cc1)N(S(=O)(=O)c1ccc(C)cc1)C2 | > 50 µM | > 50 µM | > 50 µM | > 50 µM |  |  |  |  |
| CC/C(=C(\c1ccccc1)c1ccc(OCCN(C)C)cc1)c1ccccc1 [TAMOXIFEN CITRATE] | 10.2 µM | 12.3 µM | 12.5 µM | 15.2 µM |  |  |  |  |
| Cc1ccc(S(=O)(=O)N2Cc3ccccc3OC[C@@H]2Cc2c[nH]c3ccccc23)cc1 | > 50 µM | > 50 µM | > 50 µM | > 50 µM |  |  |  |  |
| Cc1ccc(S(=O)(=O)N2Cc3ccccc3OC[C@@H]2C)cc1 | > 50 µM | > 50 µM | > 50 µM | > 50 µM |  |  |  |  |
| Cc1ccc(S(=O)(=O)N2Cc3ccccc3OC[C@@H]2Cc2ccc(O)cc2)cc1 | 29.1 µM | > 50 µM | 34 µM |  |  |  |  |  |
| COc1ccc2c(c1)OC[C@H](Cc1ccc(OCCN3CCCCC3)cc1)N(S(=O)(=O)c1ccc(C)cc1)C2 | > 50 µM | > 50 µM | > 50 µM | > 50 µM |  |  |  |  |
